In test [1] the test system is PAC1. The following applies: ref 15 (maxadilan); cited from earlier work. From the text:
Similarities include initial binding events between the C-terminal domain of the peptide with the extracellular domain (ECD) followed by insertion of the N-terminus of the peptide into the core of the receptor to enable activation, but with differences in binding poses in the C-terminus explaining in part the ligand selectivity of each receptor [13]. Empirica ...

The subject of another test is human PAC1hop (hPAC1). Briefly: cAMP biosensor (CBS) assay, agonist responses in HEK293_CBS_hPAC1. It counts as cell-based. The following applies: HEK293_CBS_hPAC1, IBMX pretreated, luminescence. From the text: A single clone of the SH-SY5Y cell line stably expressing a cAMP biosensor (SY5Y_CBS) was generated as previously described for HEK293_CBS and NS-1_CBS cells, using the retroviral vector pLHCX containing the cAMP biosensor and a hygromycin resistance gene. A HEK293_CBS_hPAC1 cell clone was generated by transducing HEK293_CBS cells with the lentiviral vector pLX304 (GeneCopoeia, Rockville, MD) encoding the human PAC1hop (PAC1; GenBank accession no. BC143679) and a blasticidin resistance gene . Following transduction, cells were selected with the appropriate antibiotics (hygromycin or blasticidin) for 2 weeks. Single-cell clones were subsequently isolated by limiting dilution and assessed for PACAP-induced cAMP production using concentration-response assays.
The cyclic AMP biosensor (CBS) assay was performed using Gibco CO2-independent medium (ThermoFisher, catalog #18045-088). HEK293_CBS_hPAC1 or SY5Y_CBS cells were seeded in 96-well black/clear-bottom plates (MidSci, Fenton, MO) at a density of 6,000 cells per well and incubated overnight. The following day, the medium in each well was aspirated and replaced with fresh medium containing 1.5 mg/mL D-luciferin potassium salt substrate (Gold Biotechnology, St. Louis, MO) and 500 μM isobutyl-1-methylxanthine (IBMX), followed by incubation at 37 °C for 1 hour. Cells were then pre-treated with antagonists for 10 minutes before the addition of agonists (PACAP or forskolin). Plates were incubated at 37 °C for 1 hour, then brought to room temperature and equilibrated for 30 minutes. Luminescence was measured using a GloMax plate reader (Promega, Madison, WI).
GraphPad Prism ver. 9.0 or 10.0 (GraphPad Software Inc, Boston, MA) was used for data analysis. Concentration response curves were created using a four parameter logistic regression model. EC80 and IC50 parameters were obtained using non-linear regression curve fitting tools. EC80 was calculated as the effective concentration of the agonist required to produce 80% of the maximal response. […]

In test [2] the test system is PAC1. Briefly: CBS assay in NS-1 cells, endogenous PAC1. The test is classed as cell-based, rat. As to conditions: NS-1 cells expressing CBS, n = 3. As for the experimental part: Cell culture reagents were purchased from ThermoFisher Scientific (Waltham, MA) unless otherwise noted. Neuroscreen-1 (NS-1) cells (Cellomics, Halethorpe, MD) were grown on flasks or plates coated with Collagen I (rat tail) as described previously. NS-1 cells were cultured in RPMI-1640 media supplemented with 10% horse serum and 5% heat-inactivated Fetal Bovine Serum (Hyclone, Logan, UT). HEK293 and SH-SY5Y cells were purchased from ATCC (Gaithersburg, MD) and cultured with DMEM medium with 10% FBS. All cell culture medium were supplemented with 2 mM glutamine, 100 U/ml penicillin, and 100 μg/ml streptomycin.
A single clone of the SH-SY5Y cell line stably expressing a cAMP biosensor (SY5Y_CBS) was generated as previously described for HEK293_CBS and NS-1_CBS cells, using the retroviral vector pLHCX containing the cAMP biosensor and a hygromycin resistance gene. […] Single-cell clones were subsequently isolated by limiting dilution and assessed for PACAP-induced cAMP production using concentration-response assays.
The cyclic AMP biosensor (CBS) assay was performed using Gibco CO2-independent medium (ThermoFisher, catalog #18045-088). […] Luminescence was measured using a GloMax plate reader (Promega, Madison, WI).
GraphPad Prism ver. […] EC80 was calculated as the effective concentration of the agonist required to produce 80% of the maximal response. […]

No end group written: not given here.

As for maxadilan, the “activity at PAC1” value with PAC1 [1] is reported as “agonist”. Turning to “pituitary adenylate cyclase-activating polypeptide (PACAP) 1-38 (HSDGIFTDSYSRYRKQMAVKKYLAAVLGKRYKQRVKNK-NH2) [P38, endogenous PAC1 agonist]”, in the test with human PAC1hop (hPAC1), the “agonist response (cAMP)” value was “highly responsive to P38 and P27 with similar potency and efficacy”. Besides, the “activation of endogenous PAC1” value with PAC1 [2] was “can be activated by P38”.

Source of the values: article doi:10.1101/2025.04.16.649181, “Design of peptide-based PAC1 antagonists combining molecular dynamics simulations and a biologically relevant cell-based assay” (bioRxiv, 2025).
